Counter-ions that a name gives are not always drawn. Like-named read-outs stand apart in the source and are kept apart here. Square brackets hold non-standard residues; d marks the D form. Peptide text beside a SMILES is read from it. 1Nal = N[C@@H](Cc1cccc2ccccc12)C(=O)O; Dmt = Cc1cc(O)cc(C)c1C[C@H](N)C(=O)O
Experiments:
[1] = system: male Sprague–Dawley rats; settings: cited from earlier work; for Antinociception, warm water tail flick test: icv, male Sprague–Dawley rats, ref Imam et al. [19]
[2] = system: DOP receptor; settings: inhibition of forskolin-stimulated cAMP formation, HEK cells stably expressing DOP receptor, cited from earlier work
[3] = system: male Sprague–Dawley rats; settings: cited from earlier work
[4] = system: male Sprague–Dawley rats; settings: cited from earlier work; remark: listed apart in the source
[5] = system: male Sprague–Dawley rats; settings: cited from earlier work; remark: listed apart in the source
[6] = system: MOP receptor; settings: inhibition of forskolin-stimulated cAMP formation, HEK cells stably expressing MOP receptor; ref Cai et al. [18]; cited from earlier work
[7] = system: KOP receptor; settings: inhibition of forskolin-stimulated cAMP formation, HEK cells stably expressing KOP receptor; ref Cai et al. [18]; cited from earlier work
[8] = system: mice; settings: sc, ref [27]; cited from earlier work
[9] = system: male Sprague–Dawley rats; assay: Warm-water tail flick test (antinociception), icv dosing; assay type: in vivo, rat; settings: for Mean (± SEM) peak tail flick latency: baseline latency 2.0–3.5 s; for Mean (± SEM) ΔLatency-AUC: vehicle 0.8 (± 0.3) s.h
Method: To assess a role for opioid receptors in mediating antinociception, rats were dosed with naloxone (10 mg/kg; sc) 10 min prior icv dosing with CYX-5 at the highest dose tolerated (20 nmol).
(§1) Data are presented as mean ± standard error of mean (SEM). One-way analysis of variance was used for analysing the following data: ΔLatency-AUC of warm water tail flick data (Fig. 2B, D); % Small intestinal transit of charcoal meal data and % change of transit relative to vehicle (Fig. 3A, B); AUC of % rats with diarrhoea (% of vehicle control) (Fig. 4B), Cumulative stool weight difference from vehicle (4 h) (Fig. 4D); ΔMV-AUC, ΔRF-AUC and ΔTv-AUC (Fig. 6A–F). Two-way analysis of variance was used for the following data: MV, RF and Tv data for 2 h WPB test (Fig. 5A–F). The analyses were implemented in GraphPad Prism v9.0.0 (GraphPad Software, Inc., La Jolla, CA USA). Dunnett's multiple comparison test was used for post hoc analysis of all the data. For individual animals in the tail flick test, the increase in tail flick latency above baseline (ΔLatency) was calculated for every assessment time point, and the areas under the ΔLatency versus time curve (AUC) values were estimated using trapezoidal integration as using GraphPad™ Prism v9.0.0. For the castor oil-induced diarrhoea test, the percentage of rats with diarrhoea (%AD) was determined for each time point and plotted against time for individual animals. The areas under the curve (%AD-AUC) values were calculated using GraphPad™ Prism v9.0.0. A value of p ≤ 0.05 was the statistical significance criterion. For one-way ANOVA, F values are expressed as Fdf of treatment, residual. For two-way ANOVA, F values are expressed as Fdf of treatment, time, interaction/residual.

[10] = system: male Sprague–Dawley rats; assay: GI motility, charcoal meal test, icv dosing; assay type: in vivo, rat; settings: for Mean (± SEM) % small intestinal transit (%SIT): n = 6, vehicle 77.3 (± 1.9) %
Method: One hour later, the rats were euthanised and the intestine was collected for measurement of the following: (i) the distance from the pylorus to the front edge of the charcoal meal; (ii) the distance between the pylorus and the distal edge of the ileum. The intestinal transit index was determined by dividing measurement (i) by measurement (ii).

[11] = system: male Sprague–Dawley rats; assay: Inhibition of castor oil-induced diarrhoea, icv dosing; assay type: in vivo, rat; settings: for Mean (± SEM) %AUC of % rats with diarrhoea (% of vehicle control): 8 h, vehicle set at 100%; for Cumulative stool weight-area under the curve (CSW-AUC): at 4 h, vehicle 18.3 (± 1.1) g.h
Method: After an overnight fast (16 h), the pre-dosing stool consistency of individual rats was recorded. […] The weight and consistency of faeces were recorded pre-dose and hourly for 8 h post-dosing for individual animals. The scoring criteria for faeces consistency were as follows: 0 = normal faeces, 1 = well-shaped wet faeces, 2 = shapeless faeces, 3 = shapeless faeces with large amounts of liquid. A score of ≥ 2 for both weight and consistency was defined as diarrhoea.
as §1

[12] = system: male Sprague–Dawley rats; assay: Respiratory function by whole body plethysmography, icv dosing; assay type: in vivo, rat
Method: After acclimatisation for 30–60 min, respiratory parameters were recorded for 45 min pre-dosing (three 15 min cycles) and for 2 h post-dosing (eight 15 min cycles). In each cycle, rats breathed normal air for 1 min, followed by a hypercapnic gas mixture (8% CO2, 21% O2 and 71% N2) for 5 min and then a 9 min recovery period breathing normal air. Respiratory parameters recorded by the blinded tester (M.Z.I.) included minute ventilation (MV), respiratory frequency (RF) and tidal volume (Tv) using the BioSystem XA software. The baseline was calculated as the mean difference in MV (ΔMV), RF (ΔRF) and Tv (ΔTv) during the pre-dosing exposure to normal air and the hypercapnic gas mixture.

[13] = target: DOP receptor; settings: mean ± SEM; ref [18]; cited from earlier work
Text: (§2) By comparison, CYX-5 is a truncated analogue of EM-2 (H-Dmt-Pro-Nal-NH2; Nal: 3-(1-naphthyl)-L-alanine) (Fig. 1). In vitro, CYX-5, like CYX-6, was a G-protein biassed ligand at MOP, DOP and KOP receptors. […] In the forskolin-stimulated cAMP assay in HEK-cells expressing murine MOP, D ...

[14] = target: MOP receptor; settings: mean ± SEM; ref [18]; cited from earlier work
Text: as §2

[15] = system: MOP receptor; settings: guinea-pig small intestinal myenteric plexus muscle preparation; ref [18]; cited from earlier work
[16] = system: MOP receptor; settings: in vitro; ref [18]; cited from earlier work
[17] = system: DOP receptor; settings: in vitro; ref [18]; cited from earlier work
[18] = system: KOP receptor; settings: in vitro; ref [18]; cited from earlier work
[19] = Metabolic stability using rat liver microsomes
[20] = system: male Sprague–Dawley rats; assay: Tolerability / neuro-excitatory clinical signs after icv dosing
[21] = icv 100 nmol, n = 6, biphasic profile, data re-used, ref [19]
[22] = icv 100 nmol, data re-used, ref [19]
[23] = icv, male Sprague–Dawley rats, ref Imam et al. [19], Kuo et al. [23]
[24] = icv, male Sprague–Dawley rats, √/X not defined

CN1CC[C@]23c4c5ccc(O)c4O[C@H]2[C@@H](O)C=C[C@H]3[C@H]1C5 [morphine, morphine hydrochloride]
First antinociceptive peak tail flick latency, mean (± SEM) [1, 21]: 8.9 (± 0.5) s
Second antinociceptive peak tail flick latency, mean (± SEM) [1, 21]: 10.0 (± 0.0) s
Antinociception (tail flick), in words [1, 22]: pronounced antinociception
Mean time to first peak effect (tail flick) [1, 22]: 0.75 h
Mean time to second peak effect (tail flick) [1, 22]: 1.5 h
Antinociception, warm water tail flick test ([1]; Kuo et al. [23]): √^b,d
In vitro agonist or antagonist activity, DOP receptor ([2]; ref Kuo et al. [36]): Agonist^c
Mean (± SEM) % small intestinal transit (%SIT) ([3]; icv 100 nmol, n = 12, data re-used, ref [19]): 22.0 (± 3.4) %
Constipation, inhibition of GI motility [3, 23]: √^b,d
Time by which animals developed diarrhoea ([4]; icv 100 nmol, oral castor oil, data re-used, ref [19]): 7 h
Constipation, inhibition of castor oil-induced diarrhoea [4, 23]: √^b,d
Effect on respiratory frequency ([5]; icv 100 nmol, n = 6, hypercapnic gas mixture, relative to vehicle, data re-used, ref [19]): reduced respiratory frequency significantly
Effect on minute ventilation ([5]; icv 100 nmol, n = 6, hypercapnic gas mixture, time of peak effect, data re-used, ref [19]): reduced minute ventilation
Respiratory function, depression of minute ventilation ([5]; icv, hypercapnic conditions, awake rats, ref Imam et al. [19], Kuo et al. [23]): √^b,d

H-Dmt-Pro-Tmp-Tmp-NH2 [CYX-6]
In vitro agonist or antagonist activity, MOP receptor [6]: Agonist^a
In vitro agonist or antagonist activity, KOP receptor [7]: Antagonist^a
Antinociception, warm water tail flick test [1]: √^b
In vitro agonist or antagonist activity, DOP receptor ([2]; ref Cai et al. [18]): Antagonist^a
Respiratory function, stimulation of minute ventilation ([5]; icv, hypercapnic conditions, awake rats, ref Imam et al. [19]): √^b

CN1CC[C@]23c4c5ccc(O)c4O[C@H]2C(=O)CC[C@@]3(OCCCc2ccccc2)[C@H]1C5 [14-O-phenylpropyloxymorphone]
Fold less potent for inhibition of GI transit compared with antinociception [8]: 2.4 fold

Cc1cc(O)cc(C)c1C[C@H](N)C(=O)N1CCC[C@H]1C(=O)N[C@@H](Cc1cccc2ccccc12)C(N)=O [CYX-5, H-Dmt-Pro-Nal-NH2] (H-[Dmt]-Pro-[1Nal]-NH2)
Mean (± SEM) peak tail flick latency ([9]; icv 3 nmol, n = 6, rats): 5.2 (± 0.6) s
Mean (± SEM) ΔLatency-AUC ([9]; icv 3 nmol, n = 6): 3.2 (± 0.9) s.h
Mean (± SEM) peak tail flick latency ([9]; icv 10 nmol, n = 6, rats): 4.0 (± 0.3) s
Mean (± SEM) ΔLatency-AUC ([9]; icv 10 nmol, n = 6): 2.1 (± 0.5) s.h
Antinociception (tail flick), in words ([9]; icv 20 nmol, highest dose tolerated): moderate antinociception
Mean (± SEM) peak tail flick latency ([9]; icv 20 nmol, n = 7, rats): 5.5 (± 0.5) s
Mean (± SEM) ΔLatency-AUC ([9]; icv 20 nmol, n = 7, significantly different from vehicle): 4.8 (± 0.6) s.h
Mean time to peak effect (tail flick) ([9]; icv 3, 10 and 20 nmol, post-dose): 1 h
Antinociception, warm water tail flick test [9, 24]: √
Effect of naloxone pre-treatment on antinociception ([9]; naloxone 10 mg/kg sc 10 min prior to icv 20 nmol): completely attenuated
Mean (± SEM) % small intestinal transit (%SIT) ([10]; icv 3 nmol): 68.7 (± 2.7) %
Mean (± SEM) % small intestinal transit (%SIT) ([10]; icv 10 nmol): 64.8 (± 6.8) %
Mean (± SEM) % small intestinal transit (%SIT) ([10]; icv 20 nmol): 64.4 (± 3.4) %
Constipation, inhibition of GI motility [10, 24]: √
Mean (± SEM) %AUC of % rats with diarrhoea (% of vehicle control) ([11]; icv 3 nmol, n = 7): 72.6 (± 10.8) %AD.h
Cumulative stool weight-area under the curve (CSW-AUC) ([11]; icv 3 nmol): 11.7 (± 1.5) g.h
Mean (± SEM) %AUC of % rats with diarrhoea (% of vehicle control) ([11]; icv 10 nmol, n = 6): 78.5 (± 7.6) %AD.h
Cumulative stool weight-area under the curve (CSW-AUC) ([11]; icv 10 nmol): 13.4 (± 4.1) g.h
Mean (± SEM) %AUC of % rats with diarrhoea (% of vehicle control) ([11]; icv 20 nmol, n = 6): 68.4 (± 2.6) %AD.h
Cumulative stool weight-area under the curve (CSW-AUC) ([11]; icv 20 nmol): 2.5 (± 0.9) g.h
Time to develop diarrhoea in all animals ([11]; icv 3, 10 and 20 nmol, oral castor oil 2.5 ml, vehicle 3 h): 5 h
Effect on minute ventilation ([12]; icv 20 nmol, n = 6, hypercapnic conditions (8% CO2), awake rats): significant stimulatory effect
Effect on tidal volume ([12]; icv 20 nmol, n = 6, hypercapnic gas mixture): significant increase
Effect on respiratory frequency ([12]; icv 20 nmol, n = 6, normal air and hypercapnic gas exposure): insignificant
Respiratory function, stimulation of minute ventilation ([12]; icv, hypercapnic conditions, awake freely moving rats, √/X not defined): √
Ki [13]: 121 ± 10.2 nM
Ki [14]: 0.7 ± 0.08 nM
In vitro agonist or antagonist activity, MOP receptor [6]: Agonist^a
In vitro agonist or antagonist activity, KOP receptor [7]: Agonist^a
MOP receptor agonism ex vivo [15]: potent MOP receptor agonism
In vitro agonist or antagonist activity, DOP receptor ([2]; ref Cai et al. [18]): Antagonist^a
Recruitment of β-arrestin2 at MOP receptor [16]: lack of recruitment
Recruitment of β-arrestin2 at DOP receptor [17]: lack of recruitment
Recruitment of β-arrestin2 at KOP receptor [18]: lack of recruitment
half-life [19]: 57.6 min
Duration of postural abnormalities (flattened torso, splayed legs, ataxia) ([20]; icv 20 nmol): up to 90 min
Rats with mild, intermittent, transient clinical signs of neuroexcitation ([20]; icv 20 nmol): ~ 50%
Maximum tolerated dose, icv ([20]; pilot study, rats): 20 nmol
Side effects at 30 nmol icv ([20]; preliminary experiment, icv 30 nmol, convulsions, barrel roll, wet-dog shakes, excessive alertness): pronounced neuro-excitatory side effects
